Data published in patent publication US20090018134A1, “Compounds - 945” (AstraZeneca AB, priority 2007, published 2009).

Biological target: T1, mTOR (Homo sapiens, UniProt P42345)
T1 construct: FLAG; made in house
Experiment: In Vitro mTOR Kinase Assay (Echo), Test (a)(ii)
Assay type: biochemical
Conditions: read-out: mTOR Kinase Assay (Echo)
Method in brief: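 Compounds were acoustically dispensed, then incubated with FLAG-tagged mTOR (1362-2549) for 2 hours at room temperature. Reactions were quenched with EDTA plus detection antibody and AlphaScreen beads and left overnight in the dark before reading. Loss of phospho-T389 signal gave IC50 values.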

T1 sequence (P42345 1362-2549): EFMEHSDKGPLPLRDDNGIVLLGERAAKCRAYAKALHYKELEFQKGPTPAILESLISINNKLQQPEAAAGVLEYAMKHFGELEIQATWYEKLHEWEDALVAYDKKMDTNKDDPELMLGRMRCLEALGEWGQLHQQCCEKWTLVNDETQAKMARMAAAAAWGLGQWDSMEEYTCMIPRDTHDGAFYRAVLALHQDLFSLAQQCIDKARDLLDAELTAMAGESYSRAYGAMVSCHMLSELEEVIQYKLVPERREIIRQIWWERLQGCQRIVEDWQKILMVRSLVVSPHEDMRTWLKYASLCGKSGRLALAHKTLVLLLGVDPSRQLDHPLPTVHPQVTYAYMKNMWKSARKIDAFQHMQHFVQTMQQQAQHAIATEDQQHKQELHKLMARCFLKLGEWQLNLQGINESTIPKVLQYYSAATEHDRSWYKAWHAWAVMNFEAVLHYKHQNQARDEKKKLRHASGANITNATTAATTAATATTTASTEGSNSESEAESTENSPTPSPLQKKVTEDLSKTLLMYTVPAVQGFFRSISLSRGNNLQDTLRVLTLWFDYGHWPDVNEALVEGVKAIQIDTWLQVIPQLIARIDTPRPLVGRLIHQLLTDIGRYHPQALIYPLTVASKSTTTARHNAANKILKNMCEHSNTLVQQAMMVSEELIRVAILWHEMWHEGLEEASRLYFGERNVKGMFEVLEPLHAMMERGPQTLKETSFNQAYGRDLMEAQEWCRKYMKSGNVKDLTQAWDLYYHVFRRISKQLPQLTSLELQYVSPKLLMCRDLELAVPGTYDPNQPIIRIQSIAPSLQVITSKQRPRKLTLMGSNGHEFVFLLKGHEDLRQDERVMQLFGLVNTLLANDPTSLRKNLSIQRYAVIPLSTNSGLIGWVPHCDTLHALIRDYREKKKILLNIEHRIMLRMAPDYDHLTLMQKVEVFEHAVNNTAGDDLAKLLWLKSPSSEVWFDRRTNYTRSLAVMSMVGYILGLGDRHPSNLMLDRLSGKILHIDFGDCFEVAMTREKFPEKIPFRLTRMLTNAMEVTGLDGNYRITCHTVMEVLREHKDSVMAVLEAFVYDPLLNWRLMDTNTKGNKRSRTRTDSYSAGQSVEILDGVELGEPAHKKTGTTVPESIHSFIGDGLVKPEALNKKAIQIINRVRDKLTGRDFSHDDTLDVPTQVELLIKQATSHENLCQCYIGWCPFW

| Compound | IC50 [nM] |
| --- | --- |
| CS(=O)(=O)C1(c2cc(N3CCOCC3)nc(-c3ccc(NC(=O)NCCCO)cc3)n2)CC1 [Example 12h, 3-(3-hydroxypropyl)-1-[4-[4-(1-methylsulfonylcyclopropyl)-6-morpholin-4-ylpyrimidin-2-yl]phenyl]urea] | 3.92 |
| CNC(=O)Nc1ccc(-c2nc(N3CCOC[C@@H]3C)cc(C3(S(C)(=O)=O)CCCC3)n2)cc1 [Example 4, 3-Methyl-1-[4-[4-[(3S)-3-methylmorpholin-4-yl]-6-(1-methylsulfonylcyclopentyl)pyrimidin-2-yl]phenyl]urea] | 0.699 |
| CC(C)CNC(=O)Nc1ccc(-c2nc(N3CCOC[C@@H]3C)cc(C3(S(C)(=O)=O)CCC3)n2)cc1 [Example 5i, 1-[4-[4-[(3S)-3-methylmorpholin-4-yl]-6-(1-methylsulfonylcyclobutyl)pyrimidin-2-yl]phenyl]-3-(2-methylpropyl)urea] | 9.88 |

The remaining lines, values ahead:

| IC50 [nM] | Compound |
| --- | --- |
| 7.36 | C[C@H]1COCCN1c1cc(C2(S(C)(=O)=O)CCC2)nc(-c2ccc(NC(=O)NC(C)(C)CO)cc2)n1 [Example 5f, 3-(1-hydroxy-2-methyl-propan-2-yl)-1-[4-[4-[(3S)-3-methylmorpholin-4-yl]-6-(1-methylsulfonylcyclobutyl)pyrimidin-2-yl]phenyl]urea] |
| 4.18 | CCS(=O)(=O)C1(c2cc(N3CCOC[C@@H]3C)nc(-c3ccc(NC(=O)NC)cc3)n2)CC1 [Example 11a, 1-[4-[4-(1-ethylsulfonylcyclopropyl)-6-[(3S)-3-methylmorpholin-4-yl]pyrimidin-2-yl]phenyl]-3-methyl-urea] |

Same assay, conditions: table of enzyme assay Test (a)(ii); read-out: Test (a)(ii) IC50

| Compound | IC50 [nM] |
| --- | --- |
| CNC(=O)Nc1ccc(-c2nc(N3CCOC[C@@H]3C)cc(C3(S(C)(=O)=O)CC3)n2)cc1F [Example 52a, 1-[2-fluoro-4-[4-[(3S)-3-methylmorpholin-4-yl]-6-(1-methylsulfonylcyclopropyl)pyrimidin-2-yl]phenyl]-3-methylurea] | 10.3 |
| C[C@H]1COCCN1c1cc(C2(S(C)(=O)=O)CC2)nc(-c2ccc(NC(=O)NCCO)c(F)c2)n1 [Example 52c, 1-[2-fluoro-4-[4-[(3S)-3-methylmorpholin-4-yl]-6-(1-methylsulfonylcyclopropyl)pyrimidin-2-yl]phenyl]-3-(2-hydroxyethyl)urea] | 29.6 |
| CNC(=S)Nc1ccc(-c2nc(N3CCOC[C@@H]3C)cc(C3(S(=O)(=O)C4CC4)CC3)n2)cc1 [Example 37a, 1-[4-[4-(1-cyclopropylsulfonylcyclopropyl)-6-[(3S)-3-methylmorpholin-4-yl]pyrimidin-2-yl]phenyl]-3-methylthiourea] | 26 |
| C[C@H]1COCCN1c1cc(C2(S(=O)(=O)C3CCOC3)CC2)nc(-c2ccc(NC(=O)Nc3cnn(C)c3)cc2)n1 (stereo partly drawn) [Example 94k, 1-[4-[4-[(3S)-3-methylmorpholin-4-yl]-6-[1-(oxolan-3-ylsulfonyl)cyclopropyl]pyrimidin-2-yl]phenyl]-3-(1-methylpyrazol-4-yl)urea] | 10.6 |
| CC(C)CNC(=O)Nc1ccc(-c2nc(N3CCOC[C@@H]3C)cc(C3(S(=O)(=O)c4ccc(Cl)cc4)CC3)n2)cc1 [Example 27c, 1-[4-[4-[1-(4-chlorophenyl)sulfonylcyclopropyl]-6-[(3S)-3-methylmorpholin-4-yl]pyrimidin-2-yl]phenyl]-3-(2-methylpropyl)urea] | 14 |

Now from value to compound:

| IC50 [nM] | Compound |
| --- | --- |
| 4.85 | C[C@H]1COCCN1c1cc(C2(S(C)(=O)=O)CCC2)nc(-c2ccc(NC(=O)NC(C)(C)CO)cc2)n1 [Example 5f, 3-(1-hydroxy-2-methyl-propan-2-yl)-1-[4-[4-[(3S)-3-methylmorpholin-4-yl]-6-(1-methylsulfonylcyclobutyl)pyrimidin-2-yl]phenyl]urea] |
| 0.277 | CCNC(=O)Nc1ccc(-c2nc(N3CCOC[C@@H]3C)cc(C3(S(=O)(=O)c4nc(C)cs4)CC3)n2)cc1 [Example 25e, 1-ethyl-3-[4-[4-[(3S)-3-methylmorpholin-4-yl]-6-[1-[(4-methyl-1,3-thiazol-2-yl)sulfonyl]cyclpropyl]pyrimidin-2-yl]phenyl]urea] |
| 5.9 | CCS(=O)(=O)C1(c2cc(N3CCOC[C@@H]3C)nc(-c3ccc(NC(=O)NC)cc3)n2)CC1 [Example 11a, 1-[4-[4-(1-ethylsulfonylcyclopropyl)-6-[(3S)-3-methylmorpholin-4-yl]pyrimidin-2-yl]phenyl]-3-methyl-urea] |
| 8.82 | CNC(=O)Nc1ccc(-c2nc(N3CCOC[C@@H]3C)cc(C3(S(=O)(=O)c4c(C)noc4C)CC3)n2)cc1 [Example 59] |
| 7.8 | CNC(=O)Nc1ccc(-c2nc(N3[C@@H](C)COC[C@@H]3C)cc(C3(S(=O)(=O)C4CC4)CC3)n2)cc1 [Example 92c, 1-[4-[4-(1-cyclopropylsulfonylcyclopropyl)-6-[(3S,5)-3,5-dimethylmorpholin-4-yl]pyrimidin-2-yl]phenyl]-3-methylurea] |
